Assay results reported in a melting point compilation (Tetko et al.; mined from patent text by program, amines drawn as free bases though some values may be those of a salt).

Structure (SMILES)	melting point [°C]
CC(=O)Oc1ccc(CN2C(=O)C(=O)c3ccccc32)cc1	159 to 161
COC(=O)C1(S(=O)(=O)N2CC=C(c3ccc(-c4ccccc4)c(C)c3)CC2)CCOCC1	117 to 119
Cn1cc(C2=C(c3cn(CCCNc4ncccn4)c4ccccc34)C(=O)NC2=O)c2ccccc21	214 to 215
Cc1cc2[nH]c3c(c2cc1C)CC(N(C)C)CC3 (configuration not stated)	183 to 187
Cc1cnc2c(=O)[nH]c3cc(Cl)c(Cl)cc3n12	> 300
COc1ccccc1C1=Nc2ccc(N3CCCC3)cc2C(=O)C1	312 to 313
CCOC(=O)c1ncc2[nH]c3ccc(N4CCCS4(=O)=O)cc3c2c1C	230
COC(=O)Cc1nc(-c2ccc(OC)c(OC)c2)c2cc(Cl)ccc2n1	144 to 145
O=C(Cn1c(-c2ccc(F)cc2)ncc(NC(=O)OCc2ccccc2)c1=O)NC(Cc1ccccc1)C(=O)C(F)(F)F (configuration not stated)	103 to 107
O=C(c1cn(C(c2ccccc2)(c2ccccc2)c2ccccc2)cn1)c1cc(Cl)cc2c1OCOC2	175 to 182
Cc1c(NC(=O)c2ccc(OC[C@@H]3CCCO3)cc2)ccc2cc(CNCC(C)C)[nH]c12	159
CCOC(=O)c1cc(=O)cc(-c2ccccc2Cl)o1	104 to 106
COc1cn(-c2ccc(I)cc2F)nc(C(C)=O)c1=O	196 to 198
CCCc1nn(-c2ccc(C(F)(F)F)cn2)cc1CCCOc1c(CC)cnn1CC(=O)O	135 to 136
Cc1nnc(-c2ccc3occ(-c4cc(F)ccc4F)c3n2)o1	185 to 186
Cc1c(OCC(F)(F)F)ccnc1CS(=O)c1nc2ccccc2n1NCC(C)C (configuration not stated)	129 to 131
Nc1nc2c(ncn2COCCOC=O)c(=O)[nH]1	225 to 227
Cc1ncn(-c2cc(C)c3[nH]c(=O)ccc3c2)c1[N+](=O)[O-]	306 to 309
Cc1nc(N)c2nc(C)n(NC3CCCCC3)c2c1C	242 to 244
COc1ccc2[nH]c(S(=O)Cc3ncc(F)c(N4CCOCC4)c3C)nc2c1 (configuration not stated)	158 to 160
COc1cc(C)nc2nc(S(=O)(=O)Nc3c(Cl)cccc3Cl)nn12	214 to 215
Cc1ccc(C)n1-c1cc2c(cc1C(F)(F)F)[nH]c(=O)c(=O)n2CC(=O)NCc1ccccc1	> 250
Cc1oc(-c2ccccc2)nc1COc1ccc(OCc2oc(-c3ccccc3)nc2/C=C/C(=O)O)cc1	209 to 210
CCOC(=O)C1=C(C)NC(=S)N(C(=O)c2ccc([N+](=O)[O-])cc2)C1c1cccc([N+](=O)[O-])c1 (configuration not stated)	139 to 141

Structure (SMILES)	melting point [°C]
N=C(Nc1ccccc1C(F)(F)F)NC12CC3CC(CC(C3)C1)C2	259 to 260
O=C(c1cc([N+](=O)[O-])ccc1Nc1ccncc1)N1CCCCC1	194 to 196
CC(C)[Si](C#Cc1c2cc3ccccc3cc2c(C#C[Si](C(C)C)(C(C)C)C(C)C)c2cc3ccccc3cc12)(C(C)C)C(C)C	210
Cc1[nH]c(-c2ccccc2)nc1C(C)O (configuration not stated)	189 to 190
CN1CC2CN(C)CC(C1)C2OC(=O)c1ccccc1 (configuration not stated)	100 to 102
COC(=O)c1ccc(-n2ccc(C)n2)cc1OC	167 to 169
OCCc1nccn1CCCCc1ccc(OCc2coc(/C=C/c3ccc(F)cc3F)n2)cc1	93 to 95
O=C(Cn1ncc(-c2ccccc2)c1-c1ccccc1)NCCN1CCCC1	80 to 84
COC(=O)CCCc1cc2nc(Cl)ccc2n1S(=O)(=O)c1ccc2ncccc2c1	133 to 141
O=C([C@H]1CCCN1C(=O)Nc1ccc2ccccc2c1)N1CCc2c([nH]c3ccccc23)C1	152 to 155
COc1ccc(C(=O)N(C)Cc2cccc(-c3ccc(CC4SC(=O)NC4=O)cc3)c2)cc1 (configuration not stated)	170
COCOc1ccc(N(C)S(=O)(=O)c2ccc(C)cc2)c([N+](=O)[O-])c1	110 to 112
CC(C)[C@H](N)C(c1ccccc1)c1ccccc1	71 to 72
CCCC(Cc1ccc(Cl)cc1)C1(S(=O)(=O)c2ccc(OC)cc2)SC(=O)NC1=O (configuration not stated)	172 to 174
COc1ccc(NC(=O)c2ccccc2)cc1Nc1ccccc1	209 to 210
CCCCCCCCOc1ccc(-c2cnc(-c3ccc(OCc4ccccc4)c(F)c3F)nc2)cn1	120
CNC(=O)c1ccccc1Sc1ccc(F)cc1[N+](=O)[O-]	111 to 113
COc1cccc(Nc2ncc(C(=O)O)c(=O)[nH]2)c1	247 to 249
CC(=O)OCc1c(-c2cc(Nc3cc4n(n3)CCN(C3COC3)C4)c(=O)n(C)n2)cccc1-n1ncc2cc(C(C)(C)C)cc(F)c2c1=O	180 to 185
Cc1nnc(SCC(=O)C23CC4CC(CC(C4)C2)C3)n1Cc1ccc(Cl)cc1	158 to 159
CCC1CC(=O)N(Cc2cccc(NS(C)(=O)=O)c2)N=C1c1ccc(OC)c(OC)c1 (configuration not stated)	126
O=C(O)CCCc1oc(Cl)nc1-c1ccc(Cl)cc1	150 to 151
Cc1ccc(C(=C(C=CC(O)CC(=O)CC(=O)OC(C)(C)C)c2nnnn2C)c2ccc(C)cc2F)c(F)c1 (configuration not stated)	55 to 63
